According to the supplement of paper PMC10307832:

Key:
Assay in all cases: relative viability (nuclei count vs DMSO), 5 days (fraction); higher = more cells survive
Venetoclax + OSI-027 = compound: CC1(C)CCC(CN2CCN(c3ccc(C(=O)NS(=O)(=O)c4ccc(NCC5CCOCC5)c([N+](=O)[O-])c4)c(Oc4cnc5[nH]ccc5c4)c3)CC2)=C(c2ccc(Cl)cc2)C1 [Venetoclax] + COc1cccc2cc(-c3nc([C@H]4CC[C@H](C(=O)O)CC4)n4ncnc(N)c34)[nH]c12 [OSI-027] (partner 0.5 µM)
Summary of the method: (§1)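 A single step with final 0.05% Triton X-100, 1% formaldehyde and 1 ug/ml Hoechst fixed the cells and stained nuclei 5 days after treatment. Lung cancer cell lines in 1536-well plates had been treated by pin tool the day after seeding with one drug alone or a fixed anchor-drug dose plus five library-drug doses (not always all listed) in √10 steps, and nuclei were counted on 4× images. Relative viability is the ratio of nuclei in treated wells to nuclei in vehicle wells, taken as the median of duplicate plates.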

Venetoclax + Pictilisib = compound: CC1(C)CCC(CN2CCN(c3ccc(C(=O)NS(=O)(=O)c4ccc(NCC5CCOCC5)c([N+](=O)[O-])c4)c(Oc4cnc5[nH]ccc5c4)c3)CC2)=C(c2ccc(Cl)cc2)C1 [Venetoclax] + CS(=O)(=O)N1CCN(Cc2cc3nc(-c4cccc5[nH]ncc45)nc(N4CCOCC4)c3s2)CC1 [Pictilisib] (partner 1 µM)
Summary of the method: as §1

Selumetinib + Lapatinib = compound: Cn1cnc2c(F)c(Nc3ccc(Br)cc3Cl)c(C(=O)NOCCO)cc21 [Selumetinib] + CS(=O)(=O)CCNCc1ccc(-c2ccc3ncnc(Nc4ccc(OCc5cccc(F)c5)c(Cl)c4)c3c2)o1 [Lapatinib] (partner 2 µM)
Summary of the method: as §1

Selumetinib + Dasatinib = compound: Cn1cnc2c(F)c(Nc3ccc(Br)cc3Cl)c(C(=O)NOCCO)cc21 [Selumetinib] + Cc1nc(Nc2ncc(C(=O)Nc3c(C)cccc3Cl)s2)cc(N2CCN(CCO)CC2)n1 [Dasatinib] (partner 0.075 µM)
Summary of the method: as §1

NCI-H650
relative viability (Venetoclax + OSI-027; first compound 0.01 µM): 0.533 | relative viability (Venetoclax + OSI-027; first compound 0.03162 µM): 0.552 | relative viability (Venetoclax + OSI-027; first compound 0.1 µM): 0.561 | relative viability (Venetoclax + OSI-027; first compound 0.3162 µM): 0.528 | relative viability (Venetoclax + OSI-027; first compound 1 µM): 0.459 | relative viability (Venetoclax + Pictilisib; first compound 0.01 µM): 0.805 | relative viability (Venetoclax + Pictilisib; first compound 0.03162 µM): 0.855 | relative viability (Venetoclax + Pictilisib; first compound 0.3162 µM): 0.842 | relative viability (Venetoclax + Pictilisib; first compound 1 µM): 0.797 | relative viability (Selumetinib + Lapatinib; first compound 0.02 µM): 1.12 | relative viability (Selumetinib + Lapatinib; first compound 0.06325 µM): 1.24 | relative viability (Selumetinib + Lapatinib; first compound 0.2 µM): 1.34 | relative viability (Selumetinib + Lapatinib; first compound 0.6325 µM): 1.37 | relative viability (Selumetinib + Dasatinib; first compound 0.02 µM): 0.518 | relative viability (Selumetinib + Dasatinib; first compound 0.06325 µM): 0.578 | relative viability (Selumetinib + Dasatinib; first compound 0.2 µM): 0.65 | relative viability (Selumetinib + Dasatinib; first compound 0.6325 µM): 0.534

HARA
relative viability (Venetoclax + OSI-027; first compound 0.01 µM): 0.427 | relative viability (Venetoclax + OSI-027; first compound 0.03162 µM): 0.571 | relative viability (Venetoclax + OSI-027; first compound 0.1 µM): 0.452 | relative viability (Venetoclax + OSI-027; first compound 0.3162 µM): 0.427 | relative viability (Venetoclax + OSI-027; first compound 1 µM): 0.362 | relative viability (Venetoclax + Pictilisib; first compound 0.01 µM): 0.55 | relative viability (Venetoclax + Pictilisib; first compound 0.03162 µM): 0.386 | relative viability (Venetoclax + Pictilisib; first compound 0.1 µM): 0.396 | relative viability (Venetoclax + Pictilisib; first compound 0.3162 µM): 0.451 | relative viability (Venetoclax + Pictilisib; first compound 1 µM): 0.324 | relative viability (Selumetinib + Lapatinib; first compound 0.02 µM): 0.657 | relative viability (Selumetinib + Lapatinib; first compound 0.06325 µM): 0.506 | relative viability (Selumetinib + Lapatinib; first compound 0.2 µM): 0.606 | relative viability (Selumetinib + Lapatinib; first compound 0.6325 µM): 0.486 | relative viability (Selumetinib + Dasatinib; first compound 0.02 µM): 0.28 | relative viability (Selumetinib + Dasatinib; first compound 0.06325 µM): 0.288 | relative viability (Selumetinib + Dasatinib; first compound 0.2 µM): 0.247 | relative viability (Selumetinib + Dasatinib; first compound 0.6325 µM): 0.271

NCI-H661
relative viability (Venetoclax + OSI-027; first compound 0.01 µM): 0.682 | relative viability (Venetoclax + OSI-027; first compound 0.03162 µM): 0.789 | relative viability (Venetoclax + OSI-027; first compound 0.1 µM): 0.705 | relative viability (Venetoclax + OSI-027; first compound 0.3162 µM): 0.681 | relative viability (Venetoclax + OSI-027; first compound 1 µM): 0.617 | relative viability (Venetoclax + Pictilisib; first compound 0.01 µM): 0.466 | relative viability (Venetoclax + Pictilisib; first compound 0.03162 µM): 0.446 | relative viability (Venetoclax + Pictilisib; first compound 0.1 µM): 0.455 | relative viability (Venetoclax + Pictilisib; first compound 0.3162 µM): 0.415 | relative viability (Venetoclax + Pictilisib; first compound 1 µM): 0.347 | relative viability (Selumetinib + Lapatinib; first compound 0.02 µM): 0.449 | relative viability (Selumetinib + Lapatinib; first compound 0.06325 µM): 0.466 | relative viability (Selumetinib + Lapatinib; first compound 0.2 µM): 0.427 | relative viability (Selumetinib + Lapatinib; first compound 0.6325 µM): 0.351 | relative viability (Selumetinib + Dasatinib; first compound 0.02 µM): 0.902 | relative viability (Selumetinib + Dasatinib; first compound 0.06325 µM): 0.821 | relative viability (Selumetinib + Dasatinib; first compound 0.2 µM): 0.805 | relative viability (Selumetinib + Dasatinib; first compound 0.6325 µM): 0.731

NCI-H2087
relative viability (Venetoclax + OSI-027; first compound 0.01 µM): 0.534 | relative viability (Venetoclax + OSI-027; first compound 0.03162 µM): 0.735 | relative viability (Venetoclax + OSI-027; first compound 0.1 µM): 0.456 | relative viability (Venetoclax + OSI-027; first compound 0.3162 µM): 0.539 | relative viability (Venetoclax + OSI-027; first compound 1 µM): 0.435 | relative viability (Venetoclax + Pictilisib; first compound 0.01 µM): 1.08 | relative viability (Venetoclax + Pictilisib; first compound 0.03162 µM): 1.08 | relative viability (Venetoclax + Pictilisib; first compound 0.1 µM): 0.832 | relative viability (Venetoclax + Pictilisib; first compound 0.3162 µM): 0.921 | relative viability (Venetoclax + Pictilisib; first compound 1 µM): 0.789 | relative viability (Selumetinib + Lapatinib; first compound 0.02 µM): 0.86 | relative viability (Selumetinib + Lapatinib; first compound 0.06325 µM): 0.87 | relative viability (Selumetinib + Lapatinib; first compound 0.2 µM): 0.56 | relative viability (Selumetinib + Lapatinib; first compound 0.6325 µM): 0.441 | relative viability (Selumetinib + Dasatinib; first compound 0.02 µM): 0.535 | relative viability (Selumetinib + Dasatinib; first compound 0.06325 µM): 0.293 | relative viability (Selumetinib + Dasatinib; first compound 0.2 µM): 0.273 | relative viability (Selumetinib + Dasatinib; first compound 0.6325 µM): 0.13

NCI-H2405
relative viability (Venetoclax + OSI-027; first compound 0.01 µM): 0.64 | relative viability (Venetoclax + OSI-027; first compound 0.03162 µM): 0.711 | relative viability (Venetoclax + OSI-027; first compound 0.1 µM): 0.624 | relative viability (Venetoclax + OSI-027; first compound 0.3162 µM): 0.612 | relative viability (Venetoclax + OSI-027; first compound 1 µM): 0.619 | relative viability (Venetoclax + Pictilisib; first compound 0.01 µM): 0.505 | relative viability (Venetoclax + Pictilisib; first compound 0.03162 µM): 0.472 | relative viability (Venetoclax + Pictilisib; first compound 0.3162 µM): 0.394 | relative viability (Venetoclax + Pictilisib; first compound 1 µM): 0.402 | relative viability (Selumetinib + Lapatinib; first compound 0.02 µM): 1.05 | relative viability (Selumetinib + Lapatinib; first compound 0.06325 µM): 0.852 | relative viability (Selumetinib + Lapatinib; first compound 0.2 µM): 0.644 | relative viability (Selumetinib + Lapatinib; first compound 0.6325 µM): 0.591 | relative viability (Selumetinib + Dasatinib; first compound 0.02 µM): 0.216 | relative viability (Selumetinib + Dasatinib; first compound 0.06325 µM): 0.22 | relative viability (Selumetinib + Dasatinib; first compound 0.2 µM): 0.17 | relative viability (Selumetinib + Dasatinib; first compound 0.6325 µM): 0.187
